According to patent publication US9827219B2, “Compositions and methods for lowering levels of high-sensitivity C-reactive protein (HS-CRP) in a subject” (priority 2012, dated 2017):

How the values were obtained:
Type in all cases: in vivo, human
[1] = tested on: FPG, HbA1c, insulin and HOMA-IR; assay: Diabetes parameters (FPG, HbA1c, insulin, HOMA-IR) in patients with diabetes mellitus-2 (Example 2); conditions: 4 g/day
Protocol: The effect of >96% E-EPA on lipid and inflammatory parameters was evaluated in patients with fasting triglyceride levels ≧150 mg/dl and <499 mg/dl on concomitant statin therapy. Patients with diabetes mellitus-2 were randomized and treated with either 2 g/day >96% E-EPA, 4 g/day >96%, or placebo for twelve weeks. At the end of the treatment period, several diabetes efficacy endpoints were evaluated including, TG, LDL-C, non-HDL-C, VLDL-C, Lp-PLA2, Apo B, TC, HDL-C, VLDL-TG, hs-CRP, oxLDL, and RLP-C.

[2] = tested on: IL-6; assay: ANCHOR study, IL-6; conditions: ANCHOR ITT, week 12
Protocol: (§1) A multi-center, placebo-controlled, randomized, double-blind, 12-week study was performed to evaluate the efficacy and safety of >96% E-EPA in patients with fasting triglyceride levels ≧200 mg/dl and <500 mg/dl despite statin therapy (the mean of two qualifying entry values needed to be ≧185 mg/dl and at least one of the values needs to be ≧200 mg/dl). The primary objective of the study was to determine the efficacy of >96% E-EPA 2 g daily and 4 g daily, compared to placebo, in lowering fasting TG levels in patients with high risk for cardiovascular disease and with fasting TG levels ≧200 mg/dL and <500 mg/dL, despite treatment to LDL-C goal on statin therapy.
(§2) The population for this study was men and women >18 years of age with a body mass index ≦45 kg/m^2 with fasting TG levels greater than or equal to 200 mg/dl and less than 500 mg/dl and on a stable does of statin therapy (with or without ezetimibe). The statin must have been atorvostatin, rosuvastatin or simvastatin. The dose of statin must have been stable for ≧4 weeks prior to the LDL-C/TG baseline qualifying measurement for randomization. The statin dose was optimal such that the patients are at their LDL-C goal at the LDL-C/TG baseline qualifying measurements. The same statin at the same dose was continued until the study ended.
(§3) Approximately 648 patients were randomized at approximately 80 centers in the U.S. The study was a 18- to 20-week, Phase 3, multi-center study consisting of 2 study periods: (1) A 6- to 8-week screening period that included a diet and lifestyle stabilization, a non-statin lipid-altering treatment washout, and an LDL-C and TG qualifying period and (2) A 12-week, double-blind, randomized, placebo-controlled treatment period.
(§4) After confirmation of qualifying fasting LDL-C and TG values, eligible patients entered a 12-week, randomized, double-blind treatment period. At Visit 4 (Week 0), patients were randomly assigned to 1 of the following treatment groups: • >96% E-EPA 2 g daily, • >96% E-EPA 4 g daily, or • Placebo.
Approximately 216 patients per treatment group were randomized in this study. Stratification was by type of statin (atorvastatin, rosuvastatin or simvastatin), the presence of diabetes, and gender. The lower-efficacy statin regimen included administration of 5-10 mg of simvastatin per day; the medium-efficacy statin regimens included administration of 5-10 mg rosuvastatin per day, 10-20 mg of atorvastatin per day, 20-40 mg of simvastatin per day, or 10-20 mg of simvastatin and 5-10 mg of ezetimibe per day; and the higher-efficacy statin regimens included administration of 20-40 mg of rosuvastatin per day, 40-80 mg of atorvastatin per day, 80 mg of simvastatin per day, or 40-80 mg of simvastatin and 5-10 mg of ezetimibe per day. […]

[3] = tested on: hsCRP; assay: ANCHOR study, hsCRP (also by statin type and statin efficacy regimen)
Description: Parameters (a)-(y) can be measured in accordance with any clinically acceptable methodology. For example, triglycerides, total cholesterol, HDL-C and fasting blood sugar can be sample from serum and analyzed using standard photometry techniques. VLDL-TG, LDL-C and VLDL-C can be calculated or determined using serum lipoprotein fractionation by preparative ultracentrifugation and subsequent quantitative analysis by refractometry or by analytic ultracentrifugal methodology. Apo A1, Apo B and hsCRP can be determined from serum using standard nephelometry techniques. Lipoprotein (a) can be determined from serum using standard turbidimetric immunoassay techniques. LDL particle number and particle size can be determined using nuclear magnetic resonance (NMR) spectrometry. Remnants lipoproteins and LDL-phospholipase A2 can be determined from EDTA plasma or serum and serum, respectively, using enzymatic immunoseparation techniques. Oxidized LDL, intercellular adhesion molecule-1 and interleukin-2 levels can be determined from serum using standard enzyme immunoassay techniques. These techniques are described in detail in standard textbooks, for example Tietz Fundamentals of Clinical Chemistry, 6th Ed. (Burtis, Ashwood and Borter Eds.), WB Saunders Company.
as §1, §2, §3, §4
Approximately 216 patients per treatment group were randomized in this study. Stratification was by type of statin (atorvastatin, rosuvastatin or simvastatin), the presence of diabetes, and gender. […]

CC/C=C\C/C=C\C/C=C\C/C=C\C/C=C\CCCC(=O)OCC [AMR101, all-cis eicosa-5,8,11,14,17-pentaenoic acid ethyl ester]
Glycemic control ([1]; twelve weeks): did not worsen glycemic control | Changes in diabetes parameters including FPG, HbA1c, insulin and HOMA-IR ([1]; well-controlled, less-controlled and all diabetic subjects, FIG. 4): no statistically significant changes | IL-6 change from baseline (median) ([2]; 2 g/day): 6.9% | IL-6 end-of-treatment value (median) ([2]; 2 g/day): 2.7 pg/mL | IL-6 change from baseline (median) ([2]; 4 g/day): 3.1% | IL-6 end-of-treatment value (median) ([2]; 4 g/day): 2.6 pg/mL | hsCRP end-of-treatment value, median ([3]; ANCHOR ITT, 2 g/day, week 12): 2.5 mg/L | hsCRP change from baseline (median) ([3]; ANCHOR ITT, 4 g/day, week 12): −2.4% | hsCRP end-of-treatment value, median ([3]; ANCHOR ITT, 4 g/day, week 12): 2.0 mg/L | hsCRP median placebo-adjusted % change from baseline ([3]; ANCHOR, atorvastatin, AMR101 2 g/day vs placebo, P 0.6563): −9.3% | hsCRP change from baseline, median % ([3]; ANCHOR, atorvastatin, AMR101 2 g/day, week 12): 20.1% | hsCRP end-of-treatment value, median ([3]; ANCHOR, atorvastatin, AMR101 2 g/day, week 12, baseline 1.7): 2.3 mg/L | hsCRP median placebo-adjusted % change from baseline ([3]; ANCHOR, atorvastatin, AMR101 4 g/day vs placebo, P 0.0475): −36.7% | hsCRP change from baseline, median % ([3]; ANCHOR, atorvastatin, AMR101 4 g/day, week 12): −11.7% | hsCRP end-of-treatment value, median ([3]; ANCHOR, atorvastatin, AMR101 4 g/day, week 12, baseline 2.1): 1.5 mg/L | hsCRP median placebo-adjusted % change from baseline ([3]; ANCHOR, higher-efficacy statin regimen, AMR101 2 g/day vs placebo, P 0.5227): −8.3% | hsCRP change from baseline, median % ([3]; ANCHOR, higher-efficacy statin regimen, AMR101 2 g/day, week 12): 16.7% | hsCRP end-of-treatment value, median ([3]; ANCHOR, higher-efficacy statin regimen, AMR101 2 g/day, week 12, baseline 1.7): 2.2 mg/L | hsCRP median placebo-adjusted % change from baseline ([3]; ANCHOR, higher-efficacy statin regimen, AMR101 4 g/day vs placebo, P 0.0210): −28.6% | hsCRP change from baseline, median % ([3]; ANCHOR, higher-efficacy statin regimen, AMR101 4 g/day, week 12): 0.0% | hsCRP end-of-treatment value, median ([3]; ANCHOR, higher-efficacy statin regimen, AMR101 4 g/day, week 12, baseline 2.5): 2.0 mg/L | hsCRP change from baseline, median % ([3]; ANCHOR, lower-efficacy statin regimen, AMR101 2 g/day, week 12): 13.3% | hsCRP end-of-treatment value, median ([3]; ANCHOR, lower-efficacy statin regimen, AMR101 2 g/day, week 12, baseline 1.5): 1.7 mg/L | hsCRP median placebo-adjusted % change from baseline ([3]; ANCHOR, lower-efficacy statin regimen, AMR101 4 g/day vs placebo, P 0.8843): 4.0% | hsCRP change from baseline, median % ([3]; ANCHOR, lower-efficacy statin regimen, AMR101 4 g/day, week 12): 11.9% | hsCRP end-of-treatment value, median ([3]; ANCHOR, lower-efficacy statin regimen, AMR101 4 g/day, week 12, baseline 2.1): 2.4 mg/L | hsCRP median placebo-adjusted % change from baseline ([3]; ANCHOR, medium-efficacy statin regimen, AMR101 2 g/day vs placebo, P 0.2839): −8.3% | hsCRP change from baseline, median % ([3]; ANCHOR, medium-efficacy statin regimen, AMR101 2 g/day, week 12): 8.7% | hsCRP end-of-treatment value, median ([3]; ANCHOR, medium-efficacy statin regimen, AMR101 2 g/day, week 12, baseline 2.3): 2.6 mg/L | hsCRP median placebo-adjusted % change from baseline ([3]; ANCHOR, medium-efficacy statin regimen, AMR101 4 g/day vs placebo, P 0.0034): −22.8% | hsCRP change from baseline, median % ([3]; ANCHOR, medium-efficacy statin regimen, AMR101 4 g/day, week 12): −7.7% | hsCRP end-of-treatment value, median ([3]; ANCHOR, medium-efficacy statin regimen, AMR101 4 g/day, week 12, baseline 2.2): 1.8 mg/L | hsCRP median placebo-adjusted % change from baseline ([3]; ANCHOR, rosuvastatin, AMR101 2 g/day vs placebo, P 0.3922): −11.0% | hsCRP change from baseline, median % ([3]; ANCHOR, rosuvastatin, AMR101 2 g/day, week 12): 0.0% | hsCRP end-of-treatment value, median ([3]; ANCHOR, rosuvastatin, AMR101 2 g/day, week 12, baseline 1.6): 2.0 mg/L | hsCRP median placebo-adjusted % change from baseline ([3]; ANCHOR, rosuvastatin, AMR101 4 g/day vs placebo, P 0.0217): −31.4% | hsCRP change from baseline, median % ([3]; ANCHOR, rosuvastatin, AMR101 4 g/day, week 12): −1.2% | hsCRP end-of-treatment value, median ([3]; ANCHOR, rosuvastatin, AMR101 4 g/day, week 12, baseline 2.6): 1.9 mg/L | hsCRP median placebo-adjusted % change from baseline ([3]; ANCHOR, simvastatin, AMR101 2 g/day vs placebo, P 0.6562): −3.8% | hsCRP change from baseline, median % ([3]; ANCHOR, simvastatin, AMR101 2 g/day, week 12): 11.0% | hsCRP end-of-treatment value, median ([3]; ANCHOR, simvastatin, AMR101 2 g/day, week 12, baseline 2.2): 2.7 mg/L | hsCRP median placebo-adjusted % change from baseline ([3]; ANCHOR, simvastatin, AMR101 4 g/day vs placebo, P 0.0755): −13.6% | hsCRP change from baseline, median % ([3]; ANCHOR, simvastatin, AMR101 4 g/day, week 12): 0.0% | hsCRP end-of-treatment value, median ([3]; ANCHOR, simvastatin, AMR101 4 g/day, week 12, baseline 2.2): 2.2 mg/L | hsCRP median placebo-adjusted change from baseline ([3]; ANCHOR, 2 g/day, concomitant atorvastatin): statistically insignificant | hsCRP median placebo-adjusted change from baseline ([3]; ANCHOR, 2 g/day, concomitant rosuvastatin): statistically insignificant | hsCRP median placebo-adjusted change from baseline ([3]; ANCHOR, 2 g/day, concomitant simvastatin): statistically insignificant | hsCRP median placebo-adjusted change from baseline ([3]; ANCHOR, 2 g/day, high-efficacy statin therapy): statistically insignificant | hsCRP median placebo-adjusted change from baseline ([3]; ANCHOR, 2 g/day, low-efficacy statin therapy): statistically insignificant | hsCRP median placebo-adjusted change from baseline ([3]; ANCHOR, 2 g/day, medium-efficacy statin therapy): statistically insignificant | hsCRP median placebo-adjusted change from baseline ([3]; ANCHOR, 4 g/day, concomitant atorvastatin): −36.7% | hsCRP median placebo-adjusted change from baseline ([3]; ANCHOR, 4 g/day, concomitant rosuvastatin): −31.4% | hsCRP median placebo-adjusted change from baseline ([3]; ANCHOR, 4 g/day, concomitant simvastatin): statistically insignificant | hsCRP median placebo-adjusted change from baseline ([3]; ANCHOR, 4 g/day, high-efficacy statin therapy): −28.6% | hsCRP median placebo-adjusted change from baseline ([3]; ANCHOR, 4 g/day, low-efficacy statin therapy (e.g., simvastatin 5-10 mg/day)): statistically insignificant
